# Tested on: NLPR3 inflammasome
# Test: IL-1β production by LPS activated monocytes
# Format: cell-based, human
# Conditions: anti-IL-10R antibody
# Protocol: CD14^+ monocytes were isolated from PBMC using a pan monocyte isolation kit (Miltenyi Biotec, Bergisch Gladbach, Germany) and plated in 96 flat microtiter wells at 2×10^5/200 μL per well and cultured in the presence of LPS. The cells were cultured further in the presence of Z-YVADfmk (20 microMol), MMC950 (10 microMol), IL-10 (10 ng/mL) or various concentrations of single- or pooled donor CD4^IL-10 cell supernatants as summarized in Table 1.
# The supernatants were obtained from single- or pooled donor CD4^IL-10 cells activated for 72 hours with a combination of CD3 and CD28 antibodies as described previously. (Andolfi et al. 2012, Mol. Therapy Vol. 20, 1778-1790, Locafaro et al. Mol Ther 2017, 25, 2254) In some cases (FIGS. 19C and 19D), the monocytes were incubated with LPS in combination with the NLPR3 inflammasome activator nigericin (“NIG”) which was added during the last 30 minutes of the LPS activation.
# The NLPR3 inflammasome was activated by LPS, resulting in the production of mature caspase 1 and the biologically active forms of IL-1β and IL-18.
row,Compound,effect of anti-IL-10 receptor antibody on the inhibitory effects
1,Z-YVADfmk [Z-VADfmk],no effect
2,CC(C)(O)c1coc(S(=O)(=O)NC(=O)Nc2c3c(cc4c2CCC4)CCC3)c1 [MCC950],no effect

# — US20250177525A1, “POLYDONOR CD4+ T CELLS EXPRESSING IL-10 AND USES THEREOF” (TR1X, INC., priority 2021, published 2025)
